Laboratory results: patent US7001600B1, “Identification of TRP-2 as a human tumor antigen recognized by cytotoxic T lymphocytes” (The United States of America as represented by the …, priority 1996, dated 2006)
“Also recorded” adds a separate entry of the source.

Tests used:
Type in all cases: cell-based, human
CTL clone 4 (TRP-2) [1] = assay: GM-CSF secretion assay: CTL clone 4 co-incubated with peptide-pulsed target cells; settings: for CTL clone 4 GM-CSF release: 586EBV cells pulsed with peptide at 0.5-g/ml for 90 min, in pg/mL
Description: (§1) The T cell clones were generated by limiting dilution methods (at 1 cells/well) from the TIL586 cell line, and used allogenic PBL (1×10^3 cells/well) as feeder cells in RPMI1640 containing 10% human AB sera and 500 IU IL-2. After 12 days, T cell clones were then expanded in AIM-V medium containing 6000 IU/ml IL-2. To obtain an optimal expansion, we used the OKT3 expansion method described by S. Riddell (Walter et al. (1995)). Briefly, on day 0, 5×10^4 5×10^5 T cells were cocultured with HLA-A31 PBL (500:1, PBL: T cell ratio) and 586EBV B cells (100: 1, EBV: T cell ratio) in 25 ml RPMI 1640 containing 11% human sera, 30 ng/ml OKT3 antibody and antibiotics. On day 1, IL-2 was added at final concentration of 180 IU/ml. The media were changed with fresh media containing 11% human sera, IL-2 180 IU/ml on day 5. The media were then changed every three days. On day 12–14, T cells were harvested, counted and cryopreserved. TIL586 were isolated from the tumor specimen of a patient with metastatic melanoma and grown in medium containing IL-2 (6000 IU/ml) (Chiron) for 32–60 days as previously described [Topalian et al. 1988). TIL586 were predominantly CD8+ T cells. DNA transfection and GM-CSF assays were performed as previously described (Wang et al. 1995). Briefly, 200 ng of DNA encoding antigens and 50 ng of the HLA-A31 DNA were mixed with 2 μl of lipofectamine in […] of DMEM for 15–45 min. The DNA/lipofectamine mixture was then added to the COS-7 (5×104) cells and incubated overnight. The following day, cells were washed twice with DMEM medium. TIL586 was added at a concentration of 1×10^5 cells/well in AIM-V medium containing 120 IU/ml of IL-2. For T cell clones, only 1–2×10^4 cells/well were added. After 18–24 h incubation, 100 μl of supernatant was collected and GM-CSF was measured in a standard ELISA assay (R+D^− Systems, Minneapolis, Minn.). For testing peptides recognition, 586EBV or T2 cells were incubated with peptides at 37° C. for 90 min, and then washed three times with AIM-V medium containing 120 IU/ml of IL-2. T cells were added and incubated for an additional 18–24 h, 100 μl of supernatant was collected for GM-CSF assay.

CTL clone 1 (TRP-1) [2] = assay: GM-CSF secretion assay: CTL clone 1 (TIL586-C1) co-incubated with peptide-pulsed target cells
Description: as §1

CTL clone 1 (TRP-1) [3] = assay: as above; settings: 1510EBV (HLA-A31+) cells pulsed with peptide at 1-g/ml for 90 min
CTL clone 4 = assay: Cytotoxicity assay (Calcein AM): lysis of peptide-pulsed target cells by CTL clone 4; settings: for lysis of peptide-pulsed 586EBV B cells by CTL clone 4 (in words): different E:T ratios, peptide pulsed 90 min
Procedure: Cytolysis was determined by use of Calcein AM (Molecular Probes, Eugene, Oreg.). Briefly, T2 or 586EBV B cells were pulsed with peptides in RPMI1640/5% FCS for 90 min. Tumor cells and the peptide pulsed EBV B cells were labelled with Calcein AM (15 μl of 1 mg/ml Calcein AM for every 1×10^6 cells) for 30 min at 37. C. Following incubation, cells were washed three times with AIM V/120 IU IL-2. 1×10^3 target cells were mixed with T cells at various E:T ratio. After 4 h incubation at 37° C., 5 μl of bovine hemoglobin quench solution containing ethidium bromide was added. The plate was read by Lambda scan. The percentage of lysis was calculated from the following equation: [1−(A−B)/(C−B)]×100 where A is the reading of non-lysed cells in the presence of T cells, B is background signal value and C is the maximum signal value from target cells.

CTL clone 4 (TRP-2) [4] = assay: GM-CSF secretion assay: CTL clone 4 co-incubated with peptide-pulsed target cells; settings: 1510EBV (HLA-A31+) cells pulsed with peptide at 1-g/ml for 90 min
[5] = peptide pulsed on 586EBV B cells
[6] = 586EBV (HLA-A31+) cells pulsed with peptide at 1-g/ml for 90 min, T cells alone subtracted
[7] = T2 (HLA-A31 negative) cells pulsed with peptide at 1-g/ml for 90 min
[8] = titration, peptide pulsed on 586EBV B cells
[9] = 586EBV B cells pulsed with peptide, E:T ratio 40:1, 4 h

LLGPGFPYR
CTL clone 4 GM-CSF release (CTL clone 4 (TRP-2) [1]; T cells alone subtracted): 738

LSGPGRPYR
CTL clone 4 GM-CSF release (CTL clone 4 (TRP-2) [1]; T cells alone subtracted): 3300

LIGPGRPYR
CTL clone 4 GM-CSF release (CTL clone 4 (TRP-2) [1]; T cells alone subtracted): 2545

LLGPGRPYRA
CTL clone 4 GM-CSF release (CTL clone 4 (TRP-2) [1]; T cells alone subtracted): 545

TLLGPGRPYR [10mer extended byone amino acid at the N-terminus of TRP 197-205]
CTL clone 4 GM-CSF release (CTL clone 4 (TRP-2) [1]; T cells alone subtracted): 2100
reactivity (GM-CSF release, CTL clone 4) relative to the parental 9mer LLGPGRPYR (CTL clone 4 (TRP-2) [1]; [5]): about 60%

ALGPGRPYR
CTL clone 4 GM-CSF release (CTL clone 4 (TRP-2) [1]; T cells alone subtracted): <50

LLGPGKPYR
CTL clone 4 GM-CSF release (CTL clone 4 (TRP-2) [1]; T cells alone subtracted): 321

LLGPGIPYR
CTL clone 4 GM-CSF release (CTL clone 4 (TRP-2) [1]; T cells alone subtracted): <50

LLAPGRPYR
CTL clone 4 GM-CSF release (CTL clone 4 (TRP-2) [1]; T cells alone subtracted): <50

VWLHYYSVR [TRP186–194, synthetic TRP-2 peptide]
GSM-CSF release CTL clone 4 (TRP-2) (CTL clone 4 (TRP-2) [1]; [6]): < 50 pg/mL
GSM-CSF release CTL clone 1 (TRP-1) (CTL clone 1 (TRP-1) [2]; [6]): < 50 pg/mL

LLGPGAPYR
CTL clone 4 GM-CSF release (CTL clone 4 (TRP-2) [1]; T cells alone subtracted): <50

LFGPGRPYR
CTL clone 4 GM-CSF release (CTL clone 4 (TRP-2) [1]; T cells alone subtracted): <50

LLGPGVPYR
CTL clone 4 GM-CSF release (CTL clone 4 (TRP-2) [1]; T cells alone subtracted): <50

LLLPGRPYR
CTL clone 4 GM-CSF release (CTL clone 4 (TRP-2) [1]; T cells alone subtracted): <50

GPAFVTWHR [TRP213–221, synthetic TRP-2 peptide]
GSM-CSF release CTL clone 4 (TRP-2) (CTL clone 4 (TRP-2) [1]; [6]): < 50 pg/mL
GSM-CSF release CTL clone 1 (TRP-1) (CTL clone 1 (TRP-1) [2]; [6]): < 50 pg/mL

LGPGRPYR
CTL clone 4 GM-CSF release (CTL clone 4 (TRP-2) [1]; T cells alone subtracted): <50

LVGPGRPYR
CTL clone 4 GM-CSF release (CTL clone 4 (TRP-2) [1]; T cells alone subtracted): 2100

KLGPGRPYR
CTL clone 4 GM-CSF release (CTL clone 4 (TRP-2) [1]; T cells alone subtracted): 420

LLGPGRPYH
CTL clone 4 GM-CSF release (CTL clone 4 (TRP-2) [1]; T cells alone subtracted): <50

MSLQRQFLR [ORF3P, control peptide derived from the alternative open reading frame of the TRP-1 gene, reference compound]
GSM-CSF release CTL clone 1 (TRP-1) (CTL clone 1 (TRP-1) [3]): > 6000 pg/mL
GSM-CSF release CTL clone 4 (TRP-2) (CTL clone 4 (TRP-2) [1]; [6]): < 50 pg/mL
GSM-CSF release CTL clone 4 (TRP-2) (CTL clone 4 (TRP-2) [1]; [7]): < 50 pg/mL
GSM-CSF release CTL clone 1 (TRP-1) (CTL clone 1 (TRP-1) [2]; [6]): > 8000 pg/mL
GSM-CSF release CTL clone 1 (TRP-1) (CTL clone 1 (TRP-1) [2]; [7]): < 50 pg/mL
lysis of peptide-pulsed 586EBV B cells by CTL clone 4 (in words) (CTL clone 4): failed to lyse
GSM-CSF release CTL clone 4 (TRP-2) (CTL clone 4 (TRP-2) [4]): < 50 pg/mL

LAGPGRPYR
CTL clone 4 GM-CSF release (CTL clone 4 (TRP-2) [1]; T cells alone subtracted): 550

RDTLLGPGR [TRP194–202, synthetic TRP-2 peptide]
GSM-CSF release CTL clone 4 (TRP-2) (CTL clone 4 (TRP-2) [1]; [6]): < 50 pg/mL
GSM-CSF release CTL clone 1 (TRP-1) (CTL clone 1 (TRP-1) [2]; [6]): < 50 pg/mL

LLGPGRPYK
CTL clone 4 GM-CSF release (CTL clone 4 (TRP-2) [1]; T cells alone subtracted): 2000

LLGPGRPYR [TRP197–205, 9mer antigenic peptide of TRP-2, amino acids 197–205]
GSM-CSF release CTL clone 1 (TRP-1) (CTL clone 1 (TRP-1) [3]): < 50 pg/mL
GSM-CSF release CTL clone 4 (TRP-2) (CTL clone 4 (TRP-2) [1]; [6]): > 4000 pg/mL
CTL clone 4 GM-CSF release (CTL clone 4 (TRP-2) [1]; T cells alone subtracted): 3450
GSM-CSF release CTL clone 4 (TRP-2) (CTL clone 4 (TRP-2) [1]; [7]): < 50 pg/mL
recognition by CTL clone 4 / stimulation of cytokine release (in words) (CTL clone 4 (TRP-2) [1]; [5]): strongly recognized; also recorded: most efficiently stimulated cytokine release from T cells
peptide concentration at which stimulation of GM-CSF release reached a plateau (CTL clone 4 (TRP-2) [1]; [8]): 500 nM
peptide concentration sufficient to stimulate GM-CSF release from T cell clone 4 (CTL clone 4 (TRP-2) [1]; [8]): 1 nM
GSM-CSF release CTL clone 1 (TRP-1) (CTL clone 1 (TRP-1) [2]; [6]): < 50 pg/mL
GSM-CSF release CTL clone 1 (TRP-1) (CTL clone 1 (TRP-1) [2]; [7]): < 50 pg/mL
peptide concentration at which lysis of target cells by CTL clone 4 was detected (CTL clone 4; [9]): 1 nM
peptide concentration of maximum lysis (CTL clone 4; [9]): 100 nM
lysis of peptide-pulsed 586EBV B cells by CTL clone 4 (in words) (CTL clone 4): capable of lysing
GSM-CSF release CTL clone 4 (TRP-2) (CTL clone 4 (TRP-2) [4]): > 4000 pg/mL

FVWLHYYSVR [TRP185–194, synthetic TRP-2 peptide]
GSM-CSF release CTL clone 4 (TRP-2) (CTL clone 4 (TRP-2) [1]; [6]): < 50 pg/mL
GSM-CSF release CTL clone 1 (TRP-1) (CTL clone 1 (TRP-1) [2]; [6]): < 50 pg/mL

RLGPGRPYR
CTL clone 4 GM-CSF release (CTL clone 4 (TRP-2) [1]; T cells alone subtracted): <50

LLFPGRPYR
CTL clone 4 GM-CSF release (CTL clone 4 (TRP-2) [1]; T cells alone subtracted): <50
